According to article PMC12856317, “A reversible feedback mechanism regulating mitochondrial heme synthesis” (The Journal of Biological Chemistry, 2025):

Target: T1, holoALAS2 ΔC (residues 54–547) (Homo sapiens, UniProt P22557)
T1 construct: a truncation without the C-terminal CXXC motif (ΔC, residues 54–547); His6-SUMO (N, cleaved yes); made in house; host or cells: Escherichia coli BL21-Codon Plus (DE3)-RIL
T1 sequence (P22557 54-547): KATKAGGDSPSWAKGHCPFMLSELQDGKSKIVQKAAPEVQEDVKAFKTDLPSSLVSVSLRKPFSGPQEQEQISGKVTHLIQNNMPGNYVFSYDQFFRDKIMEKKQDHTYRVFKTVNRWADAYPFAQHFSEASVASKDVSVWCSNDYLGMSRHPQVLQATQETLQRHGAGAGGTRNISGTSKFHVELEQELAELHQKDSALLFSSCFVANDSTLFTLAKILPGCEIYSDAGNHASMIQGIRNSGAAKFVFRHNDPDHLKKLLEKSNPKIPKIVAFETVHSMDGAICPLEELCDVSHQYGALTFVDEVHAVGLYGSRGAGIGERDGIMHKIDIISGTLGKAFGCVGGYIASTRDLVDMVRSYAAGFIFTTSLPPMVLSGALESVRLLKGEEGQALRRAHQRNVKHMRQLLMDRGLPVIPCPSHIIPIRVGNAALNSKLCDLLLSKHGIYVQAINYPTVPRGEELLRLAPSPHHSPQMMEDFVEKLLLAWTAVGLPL
Assay: Colorimetric ALA release activity assay, hemin inhibition of holoenzyme
Assay type: biochemical
Procedure: A discontinuous colorimetric activity assay adapted from Shoolingin-Jordan et al. and Bailey et al. was used to measure the enzyme activity ([48], [74]). The reaction was initiated by adding 100 nM purified enzyme to 50 mM potassium phosphate, pH 7.0, 10 mM MgCl2, 1 mM DTT, 100 mM glycine, and 300 μM succinyl-CoA (175 μl total). The reaction was incubated at 37 °C for 15 min and terminated with 100 μl of cold 10% trichloroacetic acid. The precipitated protein was removed by centrifugation for 5 min at 13,000g, and 240 μl of the supernatant was mixed with 240 μl of 1 M sodium acetate, pH 4.6. To derivatize ALA, 20 μl of acetylacetone was added to the mixture and boiled at 100 °C for 10 min. After the sample was cooled for 20 min, 100 μl aliquots were transferred into a clear 96-well plate in triplicate. An equal volume of Ehrlich’s reagent (p-Dimethylaminobenzaldehyde, DMAB) was added to each well, and the absorbance was monitored at 553 nm using a microplate reader (Thermo Fisher Scientific). The peak absorbance value was converted to molar ALA concentration using ε553 = 60,400 M^−1 cm^−1.
Inhibition of enzyme activity was determined by titrating hemin (0.1 μM–60 μM) into the substrate mixture before initiating the reaction upon enzyme addition. Hemin was dissolved in 100% dimethyl sulfoxide (DMSO) (ε403 nm = 170,000 M^−1 cm^−1) and serially diluted in 100% DMSO to prepare stock solutions for each concentration. The final DMSO concentration in the reaction mixture was 2%. All experiments were performed with a minimum of three biological replicates, each with three technical replicates. Data were fitted using nonlinear regression to generate an inhibitor dose-response curve (IC50) or an agonist dose-response curve (EC50), and statistical significance was determined using a one-way ANOVA with GraphPad Prism 10.

With ferric chloride heme [hemin] as the substance, how does the IC50 (0.1 μM–60 μM hemin titrated into holoenzyme) read?
Its IC50 is 31.3 ± 0.8 µM.

What about the “residual enzyme activity, of basal activity” value (100-fold excess heme) of the same substance?
The value was ~25%.
